Assay results reported in PubChem BioAssay (NCI).
Where “and” joins values, the source holds several entries; their conditions need not be identical. Equal entries are not always repeated.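 Five compound concentrations were applied to cells in 96-well plates for 48 hours; endpoints were derived by simple linear interpolation of the resulting dose-response curve. Definition used: TGI = concentration required for complete inhibition of growth.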

Columns and labels:
Assay in all cases: DTP human tumour cell line panel, 48 h
MALME-3M melanoma = system: MALME-3M melanoma
SK-MEL-28 melanoma = system: SK-MEL-28 melanoma
M19-MEL melanoma = system: M19-MEL melanoma
DLD-1 colon = system: DLD-1 colon
DMS 114 small cell lung = system: DMS 114 small cell lung
SNB-78 CNS = system: SNB-78 CNS
KM20L2 colon = system: KM20L2 colon
LXFL 529 NSCLC = system: LXFL 529 NSCLC
XF 498 CNS = system: XF 498 CNS
DMS 273 small cell lung = system: DMS 273 small cell lung
HOP-18 NSCLC = system: HOP-18 NSCLC

For `C[C@]12CC(c3ccccc3O1)C(C(=O)Nc1nc(C34CC5CC(CC(C5)C3)C4)cs1)C(=O)N2` (stereo partly specified), the TGI (MALME-3M melanoma) was over 100 µM and the TGI (SK-MEL-28 melanoma) was over 100 µM.
For `O=C1CSC(c2cccc(Cl)c2)N1c1ccc(-c2ccc(-n3c(-c4ccccc4)nc4ccccc4c3=O)cc2)cc1` (stereo unspecified), the TGI (MALME-3M melanoma) was over 100 µM and the TGI (SK-MEL-28 melanoma) was over 100 µM.
Work on `Cc1cc2nc3c(C#N)c4c(c(-c5ccc(Cl)cc5)n3c2cc1C)CCC4` yielded a TGI (MALME-3M melanoma) of 46.8 µM and a TGI (SK-MEL-28 melanoma) of 50.3 µM.
With `O=C(O)/C=C/c1ccc2c(c1)CC1(Cc3ccccc3C1)C2` the TGI (MALME-3M melanoma) was over 100 µM.
With `O=c1[nH]c(NCc2ccc(Cl)cc2)nc2nc[nH]c12` the TGI (MALME-3M melanoma) was over 100 µM.
In the case of `N/C1=C/C(=O)NC(=O)c2c(c3ccccc3oc2=O)C1`, the TGI (MALME-3M melanoma) is reported as over 100 µM and the TGI (SK-MEL-28 melanoma) is reported as over 100 µM.
In the case of `O=C1CN(c2cccc(Cl)c2)C(=O)CN1NCNN1CC(=O)N(c2cccc(Cl)c2)CC1=O`, the TGI (MALME-3M melanoma) is reported as over 100 µM and the TGI (SK-MEL-28 melanoma) is reported as over 100 µM.
Compound `O=c1[nH]c(=O)n(COCc2ccccc2)cc1Nc1ccc(Br)cc1` has a TGI (SK-MEL-28 melanoma) of over 100 µM.
Compound `CC(C)(C)N/N=C(\C(=O)NC1=C(Cl)C(=O)c2ccccc2C1=O)C1C=CCS1(=O)=O` (stereo unspecified) has a TGI (MALME-3M melanoma) of 6.44 µM and a TGI (SK-MEL-28 melanoma) of over 100 µM.
For `CC1OC2OC3C(OCC(O)C3O)OC(=O)[C@]34CCC(C)(C)CC3C3=CCC5[C@@]6(C)C[C@H](O)[C@H](OC7OC(CO)C(O)C(O)C7OC7OCC(OC(=O)CC(C)(O)CC(=O)OC1C(O)C2O)C(O)C7O)[C@@](C)(CO)C6CC[C@@]5(C)[C@]3(C)CC4` (stereo partly specified), the TGI (MALME-3M melanoma) was 12.3 µM and the TGI (SK-MEL-28 melanoma) was 4.97 µM.
Work on `Cn1c(=O)c2c(nc3sc4ccccc4c(=O)n32)n(C)c1=O` yielded a TGI (SK-MEL-28 melanoma) of over 100 µM.
Work on `CCn1c(CCl)nc2c1C(=O)c1ccccc1C2=O` yielded a TGI (MALME-3M melanoma) of 2.41 µM and a TGI (SK-MEL-28 melanoma) of 3.19 µM.
Work on `COc1ccccc1C1(c2c(OC)c(=O)c2=O)SCCCS1` yielded a TGI (MALME-3M melanoma) of over 100 µM and a TGI (SK-MEL-28 melanoma) of over 100 µM.
`Br[C@@H]1[C@H]2c3nc4ccccc4nc3[C@@H]1C[C@H]2Br` gave a TGI (MALME-3M melanoma) of over 100 µM and a TGI (SK-MEL-28 melanoma) of over 100 µM.
Work on `CCN1CCC(CNC(=O)c2ccc(N)cc2)N1CC` (stereo unspecified) yielded a TGI (MALME-3M melanoma) of over 100 µM and a TGI (SK-MEL-28 melanoma) of over 100 µM.
With `[N-]=[N+]=CC(=O)OCCCCl` the TGI (MALME-3M melanoma) was over 100 µM and the TGI (SK-MEL-28 melanoma) was over 100 µM.
Compound `CC(C)C1=CC(=O)[C@@](C)(C2[C@H](O)C[C@@]3(C)[C@@H]4CC=C5[C@@H](CC[C@@H](OC6OCC(O)C(O)C6OC6OC(C)C(O)C(O)C6O)C5(C)C)[C@]4(C)C(=O)C[C@]23C)O1` (stereo partly specified) has a TGI (MALME-3M melanoma) of over 100 µM and a TGI (SK-MEL-28 melanoma) of over 100 µM.
`CC1(C)OC2OC(C(COS(=O)(=O)C(F)(F)F)N=[N+]=[N-])C(OC(=O)c3ccccc3)C2O1` (stereo unspecified) showed a TGI (MALME-3M melanoma) of over 100 µM and a TGI (SK-MEL-28 melanoma) of over 100 µM.
`Cc1ccc2nc(-c3ccc(C(C)(C)C)cc3)oc(=O)c2c1` showed a TGI (MALME-3M melanoma) of 53.9 µM and a TGI (SK-MEL-28 melanoma) of 62.1 µM.
With `O=C1CSC(c2ccc(Cl)cc2Cl)N1c1ccc(Oc2ccc(Cl)cc2)c(Cl)c1` (stereo unspecified) the TGI (MALME-3M melanoma) was 38.2 µM and the TGI (SK-MEL-28 melanoma) was over 100 µM.
`CC(=O)OCC1OC(n2c(Br)nc3c2c(=O)n(C)c(=O)n3C)C(OC(C)=O)C1OC(C)=O` (stereo unspecified) gave a TGI (MALME-3M melanoma) of over 100 µM and a TGI (SK-MEL-28 melanoma) of over 100 µM.
Work on `CCCCCCCCCCCCCCCCNc1ccn(C2CC(O)C(COC(c3ccccc3)(c3ccccc3)c3ccc(OC)cc3)O2)c(=O)n1` (stereo unspecified) yielded a TGI (MALME-3M melanoma) of over 100 µM and a TGI (SK-MEL-28 melanoma) of over 100 µM.
In the case of `COc1cc2c(/C=C3/C(=O)Nc4ccc(Cl)cc43)c(Cl)[nH]c2cc1C`, the TGI (MALME-3M melanoma) is reported as 20.9 µM and the TGI (SK-MEL-28 melanoma) is reported as 14.5 µM.
In the case of `C/C(=N\O)c1cccc[n+]1Cc1ccccc1`, the TGI (MALME-3M melanoma) is reported as over 100 µM and the TGI (SK-MEL-28 melanoma) is reported as over 100 µM.
In the case of `Cc1cccc(CC(Cc2ccc(C)cc2C(=O)O)C(=O)O)c1` (stereo unspecified), the TGI (MALME-3M melanoma) is reported as over 100 µM and the TGI (SK-MEL-28 melanoma) is reported as over 100 µM.
`NC(=S)N1N=C2c3ccccc3CC[C@H]2[C@@H]1c1ccc(Cl)cc1` was tested, and the TGI (M19-MEL melanoma) was over 100 µM, the TGI (DLD-1 colon) was over 100 µM and the TGI (DMS 114 small cell lung) was 70.6 µM. It also gave a TGI (MALME-3M melanoma) of 52.6 µM, a TGI (SNB-78 CNS) of over 100 µM and a TGI (KM20L2 colon) of over 100 µM. For the same compound, the TGI (LXFL 529 NSCLC) was over 100 µM, the TGI (XF 498 CNS) was 60.6 µM and the TGI (DMS 273 small cell lung) was 73.3 µM. The TGI (HOP-18 NSCLC) was over 100 µM and the TGI (SK-MEL-28 melanoma) was over 100 µM.
Compound `O=C1C(c2c(O)[nH]c3ccc(Br)cc23)=Nc2ccc(Br)cc21` has a TGI (MALME-3M melanoma) of over 100 µM and a TGI (SK-MEL-28 melanoma) of over 100 µM.
For `CC1OC(OC2C(O[C@H]3CC[C@@]4(C)C(=CC[C@H]5[C@@H]6C[C@@H]7O[C@]8(CC[C@@H](C)CO8)[C@@H](C)[C@@H]7[C@@]6(C)CC[C@@H]54)C3)OC(CO)C(O)C2O)C(O)C(O)C1O` (stereo partly specified), the TGI (MALME-3M melanoma) was 6.65 µM and the TGI (SK-MEL-28 melanoma) was over 11.8 µM.
`O=C(O)[C@H](CCC[C@H]1C(=O)O[C@H](c2ccccc2)[C@H](c2ccccc2)N1C(=O)OCc1ccccc1)N[C@@H](c1ccccc1)[C@H](O)c1ccccc1` gave a TGI (MALME-3M melanoma) of 42.2 µM and a TGI (SK-MEL-28 melanoma) of 39 µM.
`CC1=CP(=O)(c2c(C(C)C)cc(C(C)C)cc2C(C)C)CCC1Cl` (stereo unspecified) showed a TGI (MALME-3M melanoma) of 30.4 µM and a TGI (SK-MEL-28 melanoma) of 35.1 µM.
`COc1ccc(C2C(=O)c3c(OC)cc(OC)cc3OC2c2cccnc2)cc1` (stereo unspecified) showed a TGI (MALME-3M melanoma) of over 100 µM and a TGI (SK-MEL-28 melanoma) of over 100 µM.
For `COC(=O)C1(SC)C2CCC3C2CCC31` (stereo unspecified), the TGI (MALME-3M melanoma) was over 100 µM and the TGI (SK-MEL-28 melanoma) was over 100 µM.
Compound `NCCN1C(=O)c2ccccc2C1c1ccc(Cl)cc1` (stereo unspecified) has a TGI (SK-MEL-28 melanoma) of over 100 µM.
Work on `CC(Oc1ccccc1)C(=O)NNC(=O)OC(C)(C)C` (stereo unspecified) yielded a TGI (MALME-3M melanoma) of over 100 µM and a TGI (SK-MEL-28 melanoma) of over 100 µM.
Compound `COc1cc2c(cc1OC)C(=O)/C(=C/c1cc(C)cc(C)c1)C2` has a TGI (SK-MEL-28 melanoma) of over 100 µM.
Compound `CCOC(=O)c1c(SC(=O)c2ccc(OC)cc2)n(-c2ccccc2)c(=S)n(-c2ccccc2)c1=O` has a TGI (MALME-3M melanoma) of over 100 µM and a TGI (SK-MEL-28 melanoma) of over 100 µM.
In the case of `Brc1cccc(C2ON=C(c3ccccc3)N2C23CC4CC(CC(C4)C2)C3)c1` (stereo unspecified), the TGI (MALME-3M melanoma) is reported as over 10 µM and the TGI (SK-MEL-28 melanoma) is reported as over 10 µM.
`C[C@@H]1CC(=O)C[C@@H]2CC[C@H]3[C@@H]4CC[C@H](OC(=O)c5cccc6cc7ccccc7nc56)[C@H]4CC[C@@H]3[C@H]21` gave a TGI (MALME-3M melanoma) of 22.8 µM and a TGI (SK-MEL-28 melanoma) of 93.3 µM.
In the case of `CNc1ncnc2c1nc(NC1CCCC1)n2C1OC(CO)C(O)C1O` (stereo unspecified), the TGI (MALME-3M melanoma) is reported as over 100 µM and the TGI (SK-MEL-28 melanoma) is reported as over 100 µM.
In the case of `C/C(=N\Nc1nc2ccccc2s1)c1cc2ccccc2cn1`, the TGI (MALME-3M melanoma) is reported as over 100 µM and the TGI (SK-MEL-28 melanoma) is reported as over 100 µM.
With `C(=Nc1ccc(-c2nc3ccccc3s2)cc1)c1ccc[nH]1` the TGI (MALME-3M melanoma) was 32.2 µM and the TGI (SK-MEL-28 melanoma) was 42.5 µM.
`Cc1cc(S(=O)(=O)Nc2n[nH]c(N)n2)c(Cl)cc1Cl` gave a TGI (MALME-3M melanoma) of over 10 µM and a TGI (SK-MEL-28 melanoma) of over 10 µM.
For `CN(C)c1ccc(/C=C/c2sc3ccccc3[n+]2C)cc1`, the TGI (MALME-3M melanoma) was 12.1 µM and 6 µM and the TGI (SK-MEL-28 melanoma) was 15.7 µM and 6.34 µM.
`OC1COC2CC(Nc3ccccn3)OC12` (stereo unspecified) gave a TGI (MALME-3M melanoma) of over 100 µM and a TGI (SK-MEL-28 melanoma) of over 100 µM.
Work on `COC1C(N(C)C)=C(c2ccccc2)C(=O)N2CCc3ccccc3C12` (stereo unspecified) yielded a TGI (MALME-3M melanoma) of over 100 µM and a TGI (SK-MEL-28 melanoma) of over 100 µM.
`COC(=O)c1cc(OC)c(OC)c(OC)c1-c1cc2c(cc1C=O)OCO2` gave a TGI (MALME-3M melanoma) of over 10 µM and a TGI (SK-MEL-28 melanoma) of over 10 µM.
Compound `O=C(/C=C(\C(=O)c1cccs1)c1cccs1)c1ccc(C(=O)/C=C(\C(=O)c2cccs2)c2cccs2)cc1` has a TGI (SK-MEL-28 melanoma) of over 100 µM.
